# Measured values as given in US7476684B2, “Compounds for the treatment of neurological, psychiatric or pain disorders” (AstraZeneca AB, priority 2005, dated 2009).
# Key:
# [1] = Moisture sorption / deliquescence of the salt versus relative humidity; assay type: physicochemical
# [2] = Intrinsic dissolution rate, low-volume rotating disc method; assay type: physicochemical; details: salt made at 1 g scale from ethanol; disc 0.07 cm^2, 500 rpm, 50 mL USP Phosphate buffer pH 6.8 at 37° C.
# Experimental: The salt manufactured at 1 g scale from ethanol was further investigated for its intrinsic dissolution rate and compared to the free base of 4-(5-{(1R)-1-[5-(3-chlorophenyl)isoxazol-3-yl]ethoxy}-4-methyl-4H-1,2,4-triazol-3-yl)pyridine. […] Dissolution rates of the base and salt were measured with a low-volume rotating disc method. Discs were compressed from pure compound and centrically mounted in a disc holder with an exposed area of 0.07 cm^2. The disc holder rotated at 500 rpm immersed in 50 mL USP Phosphate buffer pH 6.8 at 37° C. The compound was analyzed UV-Online by a Spectrophotometer with a flow cell and a peristaltic pump with continuous circulation.
Compound,"deliquesce at relative humidity ([1]; first batch, oiled salt recrystallised in ethanol)","deliquesce at relative humidity ([1]; second batch, salt manufactured from ethanol at 68° C.)",increased moisture sorption at relative humidity ([1]; crystalline hydrochloride salt),intrinsic dissolution rate as compared to the free base [2] [times]
"C[C@@H](Oc1nnc(-c2ccncc2)n1C)c1cc(-c2cccc(Cl)c2)on1.O=S(=O)(O)O [Example 18, 4-(5-{(1R)-1-[5-(3-chlorophenyl)isoxazol-3-yl]ethoxy}-4-methyl-4H-1,2,4-triazol-3-yl)pyridine sulphate]",60-70 % relative humidity,70-80 % RH,–,–
"C[C@@H](Oc1nnc(-c2ccncc2)n1C)c1cc(-c2cccc(Cl)c2)on1.Cl [Example 17, 4-(5-{(1R)-1-[5-(3chlorophenyl)isoxazol-3-yl]ethoxy}-4-methyl-4H-1,2,4-triazol-3-yl)pyridine hydrochloride]",–,–,90-95 % RH,1000
